Patent US10238641B2, “Materials and methods for diagnosis, prevention and/or treatment of stress disorders and conditions associated with A-beta peptide aggregation” (The United States of America as represented by the …, priority 2008, dated 2019)

Key:
transgenic Tg6799 mice = experiment: Circular platform test of reference memory; type: in vivo; conditions: cotinine 2.5 mg/kg via gavage for two months
Procedure: Mice of 2.5 months of age were treated or not with cotinine 2.5 mg/kg via gavage for two months and after tested in the circular platform test. In this test the number of errors to escape a 69 cm diameter circular platform containing 16 holes along its perimeter was determined in a single daily trial (300 s maximum) over 8 days of testing. Only one hole leads to an escape box, which remains the same for any given animal. To control for olfactory cures, the escape hole was relocated after each animal's trial and the maze cleaned with a dilute vinegar solution. Tg, transgenic Tg6799 mice, NT, control wild type littermate mice. N=11 mice by group.

fear memory in mice = experiment: Contextual fear conditioning, freezing behavior; type: in vivo
Procedure: Mice (n=8, by condition) were treated with vehicle or cotinine (1 and 5 mg/kg/day) for 8 days and then subjected to Fear conditioning training as described. After 24 hours (h) mice were tested for freezing behavior when re-exposed to the same context (the chamber) every day for […].
To study the effect of cotinine on contextual fear memory, we pretreated mice with vehicle or cotinine at 1 and 5 mg/kg/day for 8 days. After this time, mice were trained for contextual fear conditioning (FC). Briefly, mice were trained to associate the context (the chamber) with an aversive unconditioned stimulus (1 mA foot shock for 2 seconds). After the FC training, the mice were re-exposed to the context every day for 7 consecutive days. The mice were treated daily with vehicle or cotinine at 1 and 5 mg/kg during the FC training and re-exposure to the context. The fear memory of the mice expressed as freezing behavior was assessed each day after re-exposure to the context. The fear memory after 24 h of the FC training is considered a measure of retention of the fear memory. The reduction of fear memory expressed as a reduction in the freezing behavior after the retention trial is evaluated as the extinction of the fear memory.

ERK1/2 = experiment: BDNF-stimulated pERK1/2 in primary cortical neurons, Western blot; type: cell-based; conditions: BDNF 100 ng/ml plus cotinine 10 μM, 1 h
nAChRs = type: cell-based, rat
Aβ1-42 peptide = target: T1, Aβ1-42 peptide (Homo sapiens, UniProt P05067); experiment: Aβ oligomerization, Western blot and dot-blot immunoassays (6E10, A11 antibodies); type: biochemical
T1 construct: Aβ1-42 peptide was obtained from American Peptide; purchased American Peptide (Sunnyvale, Calif., USA)
T1 sequence (P05067 672-713 limits assumed): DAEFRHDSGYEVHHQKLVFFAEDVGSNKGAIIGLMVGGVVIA
Procedure: Aβ1-42 peptide was obtained from American Peptide (Sunnyvale, Calif., USA). To obtain Aβ1-42 oligomer solutions, we used a previously described protocol that results in solutions containing stable oligomers, but not fibrils for several days (Necula et al. (2007)). The lyophilized peptide was dissolved in 1 volume of 1 mM NaOH and then diluted in phosphate-buffered saline (PBS) pH 7.4 to the desired concentrations.
For the analysis of the inhibition of Aβ1-42 oligomerization/aggregation reaction, we incubated Aβ (100 μM, pH 7.4) prepared in the absence or presence of ascending concentrations of cotinine (100, 200 and 500 μM) for 7 days at 25° C. and analyzed on days 2, 5, 6 and 7. Aβ oligomerization was analyzed by Western blot and dot-blot immunoassays using antibody 6E10, which preferentially recognizes the monomeric form of Aβ and the A11 antibody that specifically recognizes the oligomeric form of the peptide but not Aβ monomers, protofibrils or fibrils.
The western blot analysis was performed as described before (Necula et al. (2007)). 10 μl-aliquots of each oligomerization reaction containing Aβ alone or Aβ plus cotinine were mixed with 5×SDS sample buffer and loaded in a 4-20% Tris-HCl gel and analyzed by Western blot using the 6E10 antibody.
The dot-blot analysis was performed as described (Necula et al. (2007)). 4-8 μl of the oligomerization mixture was applied onto nitrocellulose membranes and allowed to dry, after which the membranes were blocked for 1 h at room temperature with 10% skim milk in TBS containing 0.05% Tween 20 (TBS-T). […] After being washed with TBS-T, membranes were incubated with horseradish peroxidase-conjugated secondary antibody (1:5000) for 1 h, and visualized using enhanced chemiluminescence (Dura ECL detection kit, Pharmacia Biotech, Piscataway, N.J., USA), scanned on the Kodak Image Station 440CF, and analyzed using Molecular Imaging Software version 4.0 (Rochester, N.Y., USA) and NIH ImageJ software. The Aβ solutions for each particular day were analyzed in the same membrane and developed simultaneously. […]

[1] = system: rat cortical cells exposed to Aβ; experiment: Aβ toxicity assay, double calcein-AM and PI staining; type: cell-based; conditions: 5 μM Aβ + 10 μM cotinine, 24 h; Aβ alone 63%
Procedure: Primary cortical embryonic rat neurons were incubated with 5 μM Aβ in the presence or absence of various concentrations cotinine for […] as described (Echeverria et al. (2005)). Cell viability was assessed using the MTT assay (Sigma). As an alternative approach cell viability after exposure to Aβ and cotinine was assessed using the vital dye calcein-AM (green fluorescence) to stain live cells and propidium iodide to stain dead cells. MTT values were normalized to control values considered 100%.
In the double calcein-AM and Propidium iodide (PI) staining, PI binds to nucleic acid and is commonly used for identifying dead cells, since it is impermeable to the membranes of viable cells. Calcein-AM is converted to calcein by live cells, binds to the cellular calcium, and stains the cells by emitting a green fluorescence. […] After incubation cells were washed with PBS and the number of calcein-stained (green) and nuclei stained with PI (red) were analyzed by fluorescence microscopy. More than 600 cells per condition were analyzed in several 20× focal planes and recorded.
To investigate the effect of cotinine on Aβ neurotoxicity, rat cortical cells were grown in conditions that permitted us to obtain a neuron-enriched culture (around 95% neuron and 5% glial cells) for 7-10 days. […] After 24 h, cell survival was assessed by using MTT and PI and calcein-AM cell viability assays.

Arc = experiment: BDNF-induced Arc expression in primary cortical neurons, Western blot; type: cell-based; conditions: BDNF plus cotinine 2 h, 7 DIV cortical neurons
Text: Then cells were washed with PBS and disrupted by sonication in lysis buffer. Cell extracts were separated by SDS-PAGE and analyzed by Western blot with antibodies against Arc and β-tubulin, which was used as a control (FIG. 16B). The histogram represents the mean±SEM of experiments performed in triplicate. […] BDNF, brain-derived neurotrophic factor.

CN1C(=O)CC[C@H]1c1cccnc1 [cotinine]
reference memory in the circular platform (transgenic Tg6799 mice): prevents the loss of reference memory
freezing in the retention test versus vehicle (fear memory in mice; cotinine 1 mg/kg/day, 24 h after FC training, p=0.0191): significantly lower percentage of freezing
freezing in the extinction test versus vehicle (fear memory in mice; cotinine 5 mg/kg, day 6 of re-exposure, p=0.0218): significantly lower percentage of freezing
BDNF-stimulated phosphorylation of ERK (ERK1/2): did not affect the BDNF-stimulated phosphorylation of ERK
neuroprotective actions in presence of nAChR antagonists alpha-Bungarotoxin or mecamylamine (nAChRs): not affected
levels of Aβ monomers (Western blot, 6E10) (Aβ1-42 peptide; 100 μM Aβ1-42, cotinine 100, 200, 500 μM, 5 and 7 days at 25° C.): increased the levels of Aβ monomers
concentration of Aβ oligomers (A11 dot-blot) (Aβ1-42 peptide; 100 μM Aβ1-42, cotinine 100, 200, 500 μM, days 2 and 6 at RT): decreased the concentration of Aβ oligomers
6E10 immunoreactivity (dot-blot) (Aβ1-42 peptide; 100 μM Aβ1-42, increasing cotinine, days 2 and 6 at RT): higher immunoreactivity for the 6E10 antibody
cell survival, % of vehicle-treated control cells (PI and calcein-AM) [1]: 83%
BDNF-induced expression of Arc (Arc): enhances the BDNF-induced expression of Arc
